# Laboratory results published in PubChem BioAssay (NCI).
#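 Each compound was tested at five concentrations against cells in 96-well plates for 48 hours. GI50: concentration for 50% inhibition of growth. At the TGI there is no net growth.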
# Columns and labels:
# Assay in all cases: DTP human tumour cell line panel, 48 h
# NCI-H23 lung = test system: NCI-H23 lung
# NCI-H460 lung = test system: NCI-H460 lung
# NCI-H522 lung = test system: NCI-H522 lung
# NCI/ADR-RES ovarian = test system: NCI/ADR-RES ovarian
# OVCAR-3 ovarian = test system: OVCAR-3 ovarian
# OVCAR-4 ovarian = test system: OVCAR-4 ovarian
# OVCAR-5 ovarian = test system: OVCAR-5 ovarian
# OVCAR-8 ovarian = test system: OVCAR-8 ovarian
# PC-3 prostate = test system: PC-3 prostate
# RPMI-8226 leukemia = test system: RPMI-8226 leukemia
# RXF 393 renal = test system: RXF 393 renal
# SF-268 CNS = test system: SF-268 CNS
# SF-295 CNS = test system: SF-295 CNS
# SF-539 CNS = test system: SF-539 CNS
# SK-MEL-2 melanoma = test system: SK-MEL-2 melanoma
# SK-MEL-28 melanoma = test system: SK-MEL-28 melanoma
# SK-MEL-5 melanoma = test system: SK-MEL-5 melanoma
# SK-OV-3 ovarian = test system: SK-OV-3 ovarian
# SN12C renal = test system: SN12C renal
# SNB-19 CNS = test system: SNB-19 CNS
# SNB-75 CNS = test system: SNB-75 CNS
# SR leukemia = test system: SR leukemia
# SW-620 colon = test system: SW-620 colon
# T-47D breast = test system: T-47D breast
# TK-10 renal = test system: TK-10 renal
# U251 CNS = test system: U251 CNS
# UACC-257 melanoma = test system: UACC-257 melanoma
# UACC-62 melanoma = test system: UACC-62 melanoma
# UO-31 renal = test system: UO-31 renal
compound,measurement,setting,value
CSc1ccc(C2=NN(C(=O)c3ccc(F)cc3)C(c3ccc(F)cc3)C2)cc1 (stereo not drawn),GI50,NCI-H23 lung,18.2 µM
same,TGI,NCI-H23 lung,36.2 µM
same,GI50,NCI-H460 lung,13 µM
same,TGI,NCI-H460 lung,28.7 µM
same,GI50,NCI-H522 lung,13.3 µM
same,TGI,NCI-H522 lung,27.7 µM
same,GI50,NCI/ADR-RES ovarian,16 µM
same,TGI,NCI/ADR-RES ovarian,33 µM
same,GI50,OVCAR-3 ovarian,10.3 µM
same,TGI,OVCAR-3 ovarian,22.5 µM
same,GI50,OVCAR-4 ovarian,14.9 µM
same,TGI,OVCAR-4 ovarian,30.3 µM
same,GI50,OVCAR-5 ovarian,18.2 µM
same,TGI,OVCAR-5 ovarian,33.3 µM
same,GI50,OVCAR-8 ovarian,13.5 µM
same,TGI,OVCAR-8 ovarian,28.9 µM
same,GI50,PC-3 prostate,6.43 µM
same,TGI,PC-3 prostate,22.2 µM
same,GI50,RPMI-8226 leukemia,1.68 µM
same,TGI,RPMI-8226 leukemia,4.2 µM
same,GI50,RXF 393 renal,4.8 µM
same,TGI,RXF 393 renal,20 µM
same,GI50,SF-268 CNS,2.69 µM
same,TGI,SF-268 CNS,13.4 µM
same,GI50,SF-295 CNS,17.9 µM
same,TGI,SF-295 CNS,33.7 µM
same,GI50,SF-539 CNS,19.4 µM
same,TGI,SF-539 CNS,38.1 µM
same,GI50,SK-MEL-2 melanoma,18.8 µM
same,TGI,SK-MEL-2 melanoma,34.6 µM
same,GI50,SK-MEL-28 melanoma,18.3 µM
same,TGI,SK-MEL-28 melanoma,32.6 µM
same,GI50,SK-MEL-5 melanoma,18.5 µM
same,TGI,SK-MEL-5 melanoma,33.3 µM
same,GI50,SK-OV-3 ovarian,16.9 µM
same,TGI,SK-OV-3 ovarian,31.1 µM
same,GI50,SN12C renal,7.21 µM
same,TGI,SN12C renal,19.2 µM
same,GI50,SNB-19 CNS,14.3 µM
same,TGI,SNB-19 CNS,27.5 µM
same,GI50,SNB-75 CNS,13.1 µM
same,TGI,SNB-75 CNS,26 µM
same,GI50,SR leukemia,1.71 µM
same,TGI,SR leukemia,5.95 µM
same,GI50,SW-620 colon,14.2 µM
same,TGI,SW-620 colon,34.2 µM
same,GI50,T-47D breast,12.2 µM
same,TGI,T-47D breast,31.2 µM
same,GI50,TK-10 renal,10.4 µM
same,TGI,TK-10 renal,22.8 µM
same,GI50,U251 CNS,4.54 µM
same,TGI,U251 CNS,15.5 µM
same,GI50,UACC-257 melanoma,14.7 µM
same,TGI,UACC-257 melanoma,28.3 µM
same,GI50,UACC-62 melanoma,11.7 µM
same,TGI,UACC-62 melanoma,24.5 µM
same,GI50,UO-31 renal,12.6 µM
same,TGI,UO-31 renal,25.1 µM
